Measured values published in US20260240842A1, “METHODS TO PREVENT THERAPY RESISTANCE IN MELANOMA VIA BLOCKING GENOMIC INSTABILITY” (THE REGENTS OF THE UNIVERSITY OF CALIFORNIA, priority 2022, published 2026).

How the values were obtained:
[1] = tested on: human BRAF^V600MUT (M229, M249, M395) or NRAS^Q61MUT (M202, M207, M245) melanoma cell lines; experiment: Long-term clonogenic growth: emergence of acquired MAPKi-resistant colonies (DTPPs) in parental melanoma cell lines under MAPKi; format: cell-based; conditions: for efficacy of co-treatment during the second half of the MAPKi treatment course: M229 (day 14-28) and M245 (day 15-30); for suppression of resistance with delayed co-treatment: M229 and M245, 3- to 3.5-week delay in co-treatment, FIGS. 4R and 4S; for sensitivity of M249 parental cell line to resistance suppression: M249, FIG. 4D; for prevention of DTPP formation / suppression of acquired MAPKi resistance: in combination with MAPKi (BRAFi+MEKi or MEKi), parental cell lines, FIG. 4
Method: FIGS. 4A-4U. DNA-PKi and/or PARPi co-treatment prevents acquired MAPKi-resistance in human melanoma cell lines. FIGS. 4A to 4O: Long-term clonogenic growth of isogenic parental and acquired MAPKi-resistant BRAF^V600MUT (4A to 4H) or NRAS^Q61MUT (4I to 4O) human melanoma cell lines showing acquired-resistant colonies to BRAFi+MEKi (PLX4032 at 0.5 mM, AZD6244 at 0.5 mM in 4A and 4G; PLX4032 at 0.25 mM, AZD6244 at 0.25 mM in 4D; PLX4032 at 1 mM, AZD6244 at 1 mM in 4B, 4C, 4E, 4F and 4H) or MEKi (trametinib at 0.005 mM in I and 0.01 mM in 4J and 4N; trametinib at 0.1 mM in 4K, 4M and 4O) and their suppression by indicated co-treatments with DNA-PKi (NU7026) and/or PARPi (ABT888) at indicated concentrations. Top, representative cultures; bottom, quantifications over n=4 fields (mean±SD). Data representative of 2 to 4 independent repeats. Seeding densities (cells/well in 6-well dishes) and culture durations (days): (4A) 5,000; 31, (4B) 1,000; 17, (4C) 5,000; 18, (4D) 40,000; 40, (4E) 5,000; 14, (4F) 5,000; 12, (4G) 20,000; 30, (4H) 20,000; 21, (4I) 40,000; 30, (4J) 50,000; 31, (4K) 5,000; 17, (4L) 5,000; 22, (4M) 5,000; 16, (4N) 20.000; 16, and (4O) 5,000; 16. Data representative of 2 to 4 independent repeats. FIGS. 4P and 4Q: Western blot, MTT assay (upper), and clonogenic growth assay (lower) of M245 cells transduced by lentivirus harboring shVector control or shRNAs of PRKDC (4P) or LIG4 (4Q). TUBULIN, loading control. Clonogenic growth with vehicle (14 days, 5,000 cells/well in 6-well dishes) or MEKi (29 days, 50,000 cells/well in 6-well dishes) treatments. MEKi, trametinib at 0.01 μM. Representative results of two independent experiments; quantification of n=4 fields (mean±SD). FIGS. 4R and 4S: As in 4A and 4J, respectively, except DNA-PKi and/or PARPi co-treatments were performed in M229 (4R) and M245 (4S) at a later stage of MAPKi treatment (see timepoint schema). Inhibitor concentrations for M229: BRAFi+MEKi (PLX4032 at 0.5 μM, AZD6244 at 0.5 μM), NU7026 (8 μM), ABT888 (4 μM) and NU7026+ABT888 (4 μM+4 μM). Inhibitor concentrations for M245: MEKi (trametinib at 0.01 μM), NU7026 (5 μM), ABT888 (1 μM) and NU7026+ABT888 (5 μM+1 μM). Left, representative cultures; right, quantifications over n=4 fields (mean±SD). Data representative of 2 independent repeats. FIGS. 4T and 4U: As in 4A and 4J, respectively, except DNA-PKi and/or PARPi co-treatments were performed in M229 (4T) and M245 cells (4U) at the same concentrations in R and S for the entire durations (day 1-28 in 4T; day 1-30 in 4U), the first half (day 1-14 in T; day 1-15 in 4U) or the second half (day 14-28 in 4T: day 15-30 in 4U) of the total treatment course. Top, representative cultures; bottom, quantifications over n=4 fields (mean±SD). Data representative of 2 independent repeats. P values (one-way ANOVA followed by Tukey's multiple comparison test) comparing indicated cultures versus MAPKi-only cultures (4A to 4O and 4R to 4U) or shVector culture (4P and 4Q): *, p<0.05; **, p<0.01: ***, p<0.001.
FIGS. 12A-12F. DNA-PKi and/or PARPi co-treatment prevents acquired MAPKi-resistance in human melanoma cell lines. FIGS. 12A to 12F: Long-term clonogenic growth of BRAF^V600MUT (12A, 12C and 12E) or NRAS^Q61MUT (12B, 12D and 12F) cell lines showing acquired-resistant colonies to BRAFi+MEKi (PLX4032 at 0.5 mM, AZD6244 at 0.5 mM for M229 and M395; PLX4032 at 0.25 mM, AZD6244 at 0.25 mM for M249) or MEKi (trametinib at 0.005 mM for M202 and 0.01 mM for M207 and M245) and their suppression by indicated co-treatments with DNA-PKi (VX984 in 12A and 12B; AZD7648 in 12C and 12D) and/or PARPi (olaparib in 12E and 12F) at indicated concentrations. Top, representative cultures; bottom, quantifications over n=4 fields (mean±SD). Data representative of 2 independent repeats. Seeding densities (cells/well in 6-well dishes) and culture durations (days): M202 (40,000, 30), M207 (20,000, 16), M229 (5,000, 32), M245 (50,000, 31), M249 (40,000, 40), and M395 (20,000, 30). […]

[2] = tested on: acquired MAPKi-resistant sub-lines (n=9) isogenic to the human BRAF^V600MUT and NRAS^Q61MUT parental cell lines; experiment: Long-term clonogenic growth of acquired MAPKi-resistant sub-lines; format: cell-based; conditions: in combination with MAPKi, lower range of the concentrations tested
Method: FIGS. 4A-4U. DNA-PKi and/or PARPi co-treatment prevents acquired MAPKi-resistance in human melanoma cell lines. FIGS. 4A to 4O: Long-term clonogenic growth of isogenic parental and acquired MAPKi-resistant BRAF^V600MUT (4A to 4H) or NRAS^Q61MUT (4I to 4O) human melanoma cell lines showing acquired-resistant colonies to BRAFi+MEKi (PLX4032 at 0.5 mM, AZD6244 at 0.5 mM in 4A and 4G; PLX4032 at 0.25 mM, AZD6244 at 0.25 mM in 4D; PLX4032 at 1 mM, AZD6244 at 1 mM in 4B, 4C, 4E, 4F and 4H) or MEKi (trametinib at 0.005 mM in I and 0.01 mM in 4J and 4N; trametinib at 0.1 mM in 4K, 4M and 4O) and their suppression by indicated co-treatments with DNA-PKi (NU7026) and/or PARPi (ABT888) at indicated concentrations. Top, representative cultures; bottom, quantifications over n=4 fields (mean±SD). Data representative of 2 to 4 independent repeats. […] Representative results of two independent experiments; quantification of n=4 fields (mean±SD). […] Left, representative cultures; right, quantifications over n=4 fields (mean±SD). […] Top, representative cultures; bottom, quantifications over n=4 fields (mean±SD). […]

| SMILES | efficacy of co-treatment during the second half of the MAPKi treatment course ([1]; FIGS. 4T and 4U) | suppression of resistance with delayed co-treatment [1] | sensitivity of M249 parental cell line to resistance suppression [1] | prevention of DTPP formation / suppression of acquired MAPKi resistance [1] | anti-clonogenic activity in acquired MAPKi-resistant sub-lines compared to isogenic parental lines [2] | efficacy of co-treatment during the first half of the MAPKi treatment course ([1]; M229 (day 1-14) and M245 (day 1-15), FIGS. 4T and 4U) | prevention of DTPP formation / suppression of acquired MAPKi resistance ([1]; listed as DNA-PKi) |
| --- | --- | --- | --- | --- | --- | --- | --- |
| C[C@]1(c2nc3c(C(N)=O)cccc3[nH]2)CCCN1 [ABT888, veliparib] | completely lost | reduced the suppression of resistance | highly sensitive to resistance suppression | activity in 3 of 6 parental cell lines | no or reduced anti-clonogenic activity |  |  |
| O=c1cc(N2CCOCC2)oc2c1ccc1ccccc12 [NU7026] | partially remititive | reduced the suppression of resistance | highly sensitive to resistance suppression | synergistically and dose-dependently prevented DTPP formation in all parental cell lines tested | no or reduced anti-clonogenic activity | remititive | generally more effective than PARPi in preventing acquired resistance |
